“Also recorded” adds a separate entry of the source.
Experiments:
[1] = Pharmacokinetics in mice (exposure, AUC); type: in vivo; details: male, CD1, plasma, mouse, po
Procedure: This study was performed with 42 naïve male CD1 mice (18-20 g, 4-5 weeks old). Mice are obtained from Janvier, Le Genest St Isle, France.
A controlled environment was maintained in the room with optimal conditions of approximately 15 air changes per hour, a temperature of 22±2 C, a relative humidity of 30-70% and a 12 hour light/12 hour dark cycle (nightlight during the night period).
Pelleted diet for rodents (UAR A04C-10) was used and was provided ad libitum. Before p.o. dosing, the animals are deprived of food for at least 12 hours before compound administration and 4 hours after administration. All animals had free access to tap water.
[…] The i.v. bolus administration is given with a dose volume of 5 mL/kg and the oral administration is given with a dose volume of 10 mL/kg. Actual dose volumes are based on the mean of 10 body weights.
The vehicle used to formulate compounds for oral administration is methylcellulose in water (0.5% in water)
From all animals approximately 500 μL blood samples are collected by intra-cardiac puncture under gaseous anesthesia and placed into tubes containing Li-heparin as anticoagulant. Blood samples are collected at various time points (i.v.: 0.05, 0.25, 0.5, 1, 3, 5 and 8 hours after dosing; p.o.: 0.25, 0.5, 1, 3, 5, 8 and 24 hours after dosing). Each mouse is sampled once and euthanized.
Blood is kept on ice. Within 1 hour after sampling, blood is centrifuged at 5,000 rpm for 10 min at 4° C. Immediately after centrifugation, the resulting plasma samples are collected into polypropylene tubes and are kept frozen at −20° C. pending bioanalysis.
Plasma samples are assayed by LC-MS/MS. Plasma proteins are precipitated with an excess of methanol containing the internal standard and the corresponding supernatant is injected on a C18 column. Analytes are eluted out the HPLC system by increasing the percentage of the organic mobile phase. An API4000 mass spectrometer (AB Sciex™) is used for the detection and quantification.
Pharmacokinetic parameters are calculated by non-compartmental analysis using WinNonlin® software (Pharsight, version 5.2).

[2] = Plasma exposure at day 7 in the MDA-MB-231 xenograft experiment; type: in vivo, Female BALB/c Mice; details: for AUC: female, BALB/c, mouse, plasma, po
Procedure: 5 million MDA-MB-231 cells/mice in 0.1 mL of 50% Matrigel (BD biosciences, LDEV free 256235)+50% D-PBS 1× (Gibco 14190-086) are injected by subcutaneous route on the upper back of 120 mice. Prior to implantation, mice are anesthetized by intra-peritoneal injection with a 0.1 mL/10 g dose of anaesthetic solution (18 mL NaCl, 0.9%+0.5 mL xylazine, +1.5 mL ketamine. After implantation, tumours are regularly measured with a calliper, and mice with a mean tumour volume of about 200 mm^3 are randomized into groups of 10 individuals, and each group is dosed either with vehicle (p.o.), paclitaxel as control (3×/week, 20 mg/kg i.p.), or a test compound at doses of 3, 10, 30 or 100 mg/kg (p.o., QD, in 10 mL/kg administration volume)
Even at a 10 fold higher dosing (300 mg/kg, p.o.), Comparative Compound A remains 3.9 fold less exposed than Compound 55.

MDA-MB-231 cells = assay: Mouse xenograft model of human triple negative breast cancer (MDA-MB-231), tumorous growth inhibition; type: in vivo, Female BALB/c Mice; details: for RTV (Relative Tumor Volume) / T/C (Tumour Vs Control) / TGI (Tumor Growth Inhibition): p.o., qd
Procedure: Animals (Female BALB/c Mice, Harlan, 51930, 18-20 g) are provided with filtered tap water and standard chow ad libitum and maintained at 22±2° C. in 55±10% humidity on a 12 h light/dark cycle.
Paclitaxel used as a positive control is formulated by 1/3 dilution of commercial solution (Fresenius kabi, 871WF014/4) in saline.
The test compounds for po administration are formulated in 0.5% methylcellulose (VWR, ref AX021233).
MDA-MB-231 cell line is obtained from the ATCC collection (ref HTB-26). The cells are then cultured in RPMI 1640 medium supplemented with […] (Gibco 15140-148) and 1% (v/v) L-Glutamine 200 mM (Gibco 25030-024) at 37° C. in a 5% CO2 incubator.
5 million MDA-MB-231 cells/mice in 0.1 mL of 50% Matrigel (BD biosciences, LDEV free 256235)+50% D-PBS 1× (Gibco 14190-086) are injected by subcutaneous route on the upper back of 120 mice. Prior to implantation, mice are anesthetized by intra-peritoneal injection with a 0.1 mL/10 g dose of anaesthetic solution (18 mL NaCl, 0.9%+0.5 mL xylazine, +1.5 mL ketamine. […]
Body weight, and tumor growth is recorded twice a week during the course of treatment.
After 26 days the treatment is stopped, in each group half of the mice are euthanized for tissue collection, and the other half is kept for a further 7 days, during which period body weight and tumour sized are measured.
In sacrificed mice, blood and tumours are collected, analysed, and the effect of the test compounds is compared with controls (vehicle and paclitaxel).
The values were obtained using the following calculations
Relative Tumor Volume (RTV):
Tumor Growth Inhibition (TGI) TGI=1−T/C

| Compound | AUC ([1]; 5 mg/kg) [ng·h/mL] | AUC ([1]; 30 mg/kg) [ng·h/mL] | exposure compared with comparative Compound A ([2]; even if Compound A is administered at a 10 fold higher dose) | AUC ([2]; day 7, 30 mg/kg p.o.) [ng·h/mL] | fold higher exposure than the comparison compound A ([2]; plasma exposure at day 7, both at 30 mg/kg p.o.) [fold] | tumour growth (MDA-MB-231 cells; 30 mg/kg p.o., QD, 26 days treatment, MDA-MB-231 xenograft) | RTV (Relative Tumor Volume) (MDA-MB-231 cells; day 26, 30 mg/kg) | T/C (Tumour Vs Control) (MDA-MB-231 cells; day 26, 30 mg/kg) [%] | TGI (Tumor Growth Inhibition) (MDA-MB-231 cells; day 26, 30 mg/kg) [%] | AUC ([2]; day 7, 100 mg/kg p.o.) [ng·h/mL] | AUC ([2]; day 7, 300 mg/kg p.o.) [ng·h/mL] | fold less exposed than Compound 55 ([2]; plasma exposure at day 7, Compound A at 300 mg/kg p.o. (10 fold higher dosing)) [fold] | RTV (Relative Tumor Volume) (MDA-MB-231 cells; day 26, 100 mg/kg) | T/C (Tumour Vs Control) (MDA-MB-231 cells; day 26, 100 mg/kg) [%] | TGI (Tumor Growth Inhibition) (MDA-MB-231 cells; day 26, 100 mg/kg) [%] | RTV (Relative Tumor Volume) (MDA-MB-231 cells; day 26, 300 mg/kg) | T/C (Tumour Vs Control) (MDA-MB-231 cells; day 26, 300 mg/kg) [%] | TGI (Tumor Growth Inhibition) (MDA-MB-231 cells; day 26, 300 mg/kg) [%] | anti-tumour effect (MDA-MB-231 cells; dosed at 30, 100 or 300 mg/kg, 26 days treatment, MDA-MB-231 xenograft) |
| --- | --- | --- | --- | --- | --- | --- | --- | --- | --- | --- | --- | --- | --- | --- | --- | --- | --- | --- | --- |
| Cc1ccc(NC(=O)c2cccc(C(F)(F)F)c2)cc1-c1ccc2c([C@H](C)O)n[nH]c2n1 [Compound 55, N-{3-[3-((S)-1-Hydroxy-ethyl)-1H-pyrazolo[3,4-b]pyridin-6-yl]-4-methyl-phenyl}-3-trifluoromethyl-benzamide] | 851 | 31600 | higher | 31000 | > 24 | complete block of tumour growth; also recorded: blocks tumorous growth | 1.01 | 0.14 | 99.86 |  |  |  |  |  |  |  |  |  |  |
| Cc1ccc(NC(=O)c2cccc(C(F)(F)F)c2)cc1-c1cc(C)c2c(N)n[nH]c2n1 [Compound A, N-(3-(3-amino-4-methyl-1H-pyrazolo[3,4-b]pyridin-6-yl)-4-methylphenyl)-3-(trifluoromethyl)benzamide] |  | 1130 |  | 1280 |  |  | 3.40 | 54.89 | 45.11 | 4240 | 7920 | 3.9 | 3.09 | 47.80 | 52.20 | 4.74 | 85.40 | 14.60 | shows a plateau of its anti-tumour effect and is not able to achieve the same effect on inhibition of tumour growth |

From US9062051B2, “Compounds and pharmaceutical compositions thereof for the treatment of proliferative disorders” (GALAPAGOS NV, priority 2014, dated 2015)
